Test: xn = mol fraction of the nth substance listed

C=Cc1ccccc1 + CCCCO
viscosity [mPa·s], 101.33 kPa
Conditions | x1 = 0.0999 | x1 = 0.2019 | x1 = 0.2994 | x1 = 0.3982 | x1 = 0.5226 | x1 = 0.602 | x1 = 0.703 | x1 = 0.7942 | x1 = 0.8935
298.15 K | 1.971 | 1.644 | 1.368 | 1.165 | 0.969 | 0.913 | 0.821 | 0.772 | 0.729
303.15 K | 1.809 | 1.47 | 1.23 | 1.052 | 0.885 | 0.83 | 0.767 | 0.721 | 0.681
308.15 K | 1.636 | 1.327 | 1.104 | 0.95 | 0.811 | 0.762 | 0.693 | 0.66 | 0.63

CC(C)(C)N + CCCCOC(C)=O
303.15 K, 101 kPa
Conditions | viscosity [mPa·s]
x1 = 0.1472 | 0.6309
x1 = 0.229 | 0.6186
x1 = 0.3626 | 0.5943
x1 = 0.435 | 0.5852
x1 = 0.5578 | 0.5545
x1 = 0.6566 | 0.5313
x1 = 0.7339 | 0.5091
x1 = 0.8272 | 0.4861

BrC(Br)Br + CCCO
viscosity [mPa·s], 101 kPa
Conditions | x1 = 0.0998 | x1 = 0.1979 | x1 = 0.2988 | x1 = 0.4005 | x1 = 0.5 | x1 = 0.5953 | x1 = 0.69 | x1 = 0.7999 | x1 = 0.9007
298.15 K | 1.964 | 1.932 | 1.879 | 1.813 | 1.782 | 1.767 | 1.768 | 1.786 | 1.853
303.15 K | 1.737 | 1.716 | 1.681 | 1.647 | 1.623 | 1.621 | 1.632 | 1.674 | 1.734
308.15 K | 1.543 | 1.528 | 1.506 | 1.481 | 1.481 | 1.49 | 1.505 | 1.559 | 1.618
313.15 K | 1.363 | 1.363 | 1.354 | 1.339 | 1.352 | 1.379 | 1.393 | 1.448 | 1.515

C=Cc1ccccc1 + CCCO
298.15 K, 101.33 kPa
Conditions | viscosity [mPa·s]
x1 = 0.0999 | 1.594
x1 = 0.1997 | 1.326
x1 = 0.298 | 1.153
x1 = 0.3952 | 1.011
x1 = 0.4985 | 0.892
x1 = 0.6022 | 0.815
x1 = 0.6984 | 0.762
x1 = 0.7985 | 0.727
x1 = 0.9019 | 0.707

CCC(C)(C)OC + CCCO
298.15 K, 101.33 kPa
Conditions | viscosity [mPa·s]
x1 = 0.0142 | 1.889
x1 = 0.0405 | 1.759
x1 = 0.0642 | 1.647
x1 = 0.0889 | 1.548
x1 = 0.1148 | 1.461
x1 = 0.152 | 1.33
x1 = 0.2075 | 1.18
x1 = 0.2876 | 1.002
x1 = 0.289 | 0.999
x1 = 0.3381 | 0.912
x1 = 0.3924 | 0.833
x1 = 0.4452 | 0.767
x1 = 0.489 | 0.72
x1 = 0.5363 | 0.677
x1 = 0.5867 | 0.633
x1 = 0.645 | 0.594
x1 = 0.6933 | 0.564
x1 = 0.7588 | 0.53
x1 = 0.8347 | 0.496
x1 = 0.9093 | 0.455
x1 = 0.947 | 0.454

CCCCCCCCO + CCCO
viscosity [mPa·s], 101 kPa
Conditions | 298.15 K | 308.15 K | 318.15 K
x2 = 0.05 | 7.025 | 4.92 | 3.71
x2 = 0.1 | 6.694 | 4.637 | 3.555
x2 = 0.15 | 6.37 | 4.394 | 3.406
x2 = 0.2 | 6.052 | 4.183 | 3.261
x2 = 0.25 | 5.742 | 3.995 | 3.12
x2 = 0.3 | 5.438 | 3.824 | 2.982
x2 = 0.35 | 5.141 | 3.663 | 2.847
x2 = 0.4 | 4.851 | 3.507 | 2.713
x2 = 0.45 | 4.568 | 3.353 | 2.581
x2 = 0.5 | 4.291 | 3.197 | 2.45
x2 = 0.55 | 4.021 | 3.036 | 2.32
x2 = 0.6 | 3.758 | 2.869 | 2.191
x2 = 0.65 | 3.501 | 2.696 | 2.063
x2 = 0.7 | 3.249 | 2.517 | 1.936
x2 = 0.75 | 3.003 | 2.333 | 1.811
x2 = 0.8 | 2.762 | 2.147 | 1.687
x2 = 0.85 | 2.526 | 1.962 | 1.565
x2 = 0.9 | 2.294 | 1.782 | 1.445
x2 = 0.95 | 2.065 | 1.612 | 1.329

CC(=O)c1ccc(Cl)cc1 + CCNc1ccccc1
303.15 K, 100 kPa
Conditions | viscosity [mPa·s]
x2 = 0.0798 | 2.295
x2 = 0.1568 | 2.242
x2 = 0.2321 | 2.191
x2 = 0.2989 | 2.147
x2 = 0.3614 | 2.106
x2 = 0.4467 | 2.051
x2 = 0.5163 | 2.008
x2 = 0.5841 | 1.967
x2 = 0.6601 | 1.922
x2 = 0.7245 | 1.885
x2 = 0.7874 | 1.85
x2 = 0.8487 | 1.818
x2 = 0.9042 | 1.788

C=Cc1ccccc1 + CCO
viscosity [mPa·s], 101.33 kPa
Conditions | x1 = 0.0997 | x1 = 0.1994 | x1 = 0.3013 | x1 = 0.3987 | x1 = 0.5004 | x1 = 0.6011 | x1 = 0.7001 | x1 = 0.7976 | x1 = 0.8989
298.15 K | 1.01 | 0.932 | 0.849 | 0.798 | 0.764 | 0.747 | 0.737 | 0.731 | 0.72
303.15 K | 0.93 | 0.861 | 0.777 | 0.735 | 0.711 | 0.701 | 0.693 | 0.688 | 0.679
308.15 K | 0.848 | 0.786 | 0.711 | 0.681 | 0.661 | 0.652 | 0.645 | 0.64 | 0.634

From the CheMixHub viscosity set
